Among the data in patent US12486269B2 (Aconcagua Bio, Inc., priority 2024, dated 2025) are EC50 values, retold here.

The target in experiment [1] is T1, human calcitonin receptor (CTR) (Homo sapiens, UniProt P30988).
T1 construct: expressed in transfected cells; host or cells: COS-7 (COS7-human CTR Clone #2)
T1 sequence (P30988 25-474): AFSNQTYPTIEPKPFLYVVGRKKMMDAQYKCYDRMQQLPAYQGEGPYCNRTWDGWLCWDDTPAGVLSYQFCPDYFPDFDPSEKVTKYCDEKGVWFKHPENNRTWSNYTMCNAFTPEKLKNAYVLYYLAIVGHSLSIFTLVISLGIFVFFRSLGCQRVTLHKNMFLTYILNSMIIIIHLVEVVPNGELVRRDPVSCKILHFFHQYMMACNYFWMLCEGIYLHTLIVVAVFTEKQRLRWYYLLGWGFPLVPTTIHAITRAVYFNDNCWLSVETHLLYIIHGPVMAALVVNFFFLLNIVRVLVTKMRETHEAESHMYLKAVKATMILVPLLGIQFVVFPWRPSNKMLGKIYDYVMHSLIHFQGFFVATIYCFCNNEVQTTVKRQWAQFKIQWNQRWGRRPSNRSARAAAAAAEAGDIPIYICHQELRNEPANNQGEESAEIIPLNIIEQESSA
Description: Calcitonin Receptor (CTR) cAMP Assay. The conditions noted are these: COS7-human CTR Clone #2 stable cell line, cAMP dynamic 2 kit, 30 min; read-out: Calcitonin Receptor cAMP Stimulation Activity: EC50. The format is cell-based. The method, boiled down:
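COS-7 cells stably expressing human CTR (2000 cells/well) were incubated 30 min at 37 °C with 4-fold serially diluted compound in HBSS/20 mM HEPES/0.5 mM IBMX/0.1% casein. cAMP was detected by HTRF (665/615 nm) after 1 h at RT. % activity was normalised to vehicle and positive controls.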

Experiment [2] addresses T2, COS-7/AMY3 (human calcitonin receptor (CTR) and RAMP3) (Homo sapiens, UniProt O60896+P30988).
T2 construct: expressed in transfected cells; host or cells: COS-7
Description: Amylin Receptor cAMP Assay II. It counts as cell-based. The settings on record: values marked **: Amylin Receptor cAMP Assay II; COS-7/AMY3 cells, cAMP dynamic 2 kit, 30 min; read-out: Amylin Receptor cAMP Stimulation Activity: EC50. An outline of the steps:
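COS-7 cells stably co-expressing human CTR and RAMP3 (AMY3), 2000 cells/well in HBSS with 20 mM HEPES, 0.5 mM IBMX, 0.1% casein, stimulated with compound for 30 min at 37 °C. cAMP measured by HTRF (665/615 nm), activity normalized between vehicle and maximal control.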

Molecules are shown by their SMILES.

T2 sequence (O60896 24-148, one chain of several): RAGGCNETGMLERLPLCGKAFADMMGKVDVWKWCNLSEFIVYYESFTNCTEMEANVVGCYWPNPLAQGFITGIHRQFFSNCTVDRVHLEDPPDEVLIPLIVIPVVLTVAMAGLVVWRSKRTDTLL

As for `COc1c(Cl)ccc2c1CC[C@H]2Nc1nccc2cc(-c3c4c(nc(CCc5ccc(F)cc5)c3-c3n[nH]c(=O)o3)[C@@H]3CCCN3C4=O)sc12` [Compound 173, 5—((S)-4-(7-(((R)-5-chloro-4-methoxy-2,3-dihydro-1H-inden-1-yl)amino)thieno[2,3-c]pyridin-2-yl)-2-(4-fluorophenethyl)-5-oxo-7,8,9,9a-tetrahydro-5H-pyrido[2,3-a]pyrrolizin-3-yl)-1,3,4-oxadiazol-2(3H)-one], the concentration for a half-maximal effect (EC50) – broadly, the concentration that produces a half-maximal response – worked out at 0.788 nM in experiment [1] and 16.9 nM in experiment [2].
The corresponding values for `COc1cccc2c1CC[C@H]2Nc1nccc2cc(-c3c4c(nc(CCc5ccc(F)cc5)c3-c3n[nH]c(=O)o3)[C@@H]3COCCN3C4=O)sc12` [Compound 174, (R)-2-(4-fluorophenethyl)-4-(7-(((R)-4-methoxy-2,3-dihydro-1H-inden-1-yl)amino)thieno[2,3-c]pyridin-2-yl)-3-(5-oxo-4,5-dihydro-1,3,4-oxadiazol-2-yl)-7,8,10,10a-tetrahydro-5H-pyrido[2′,3′:3,4]pyrrolo[2,1-c][1,4]oxazin-5-one] are 0.347 nM and 31.9 nM.
Turning to `COc1cccc2c1CC[C@H]2Nc1nccc2cc(-c3c(-c4n[nH]c(=O)o4)c(CCc4ccc(F)cc4)nc4c3S(=O)(=O)N3CCC[C@@H]43)sc12` [Compound 175, 5-((S)-2-(4-fluorophenethyl)-4-(7-(((R)-4-methoxy-2,3-dihydro-1H-inden-1-yl)amino)thieno[2,3-c]pyridin-2-yl)-5,5-dioxido-7,8,9,9a-tetrahydropyrrolo[1′,2′:2,3]isothiazolo[4,5-b]pyridin-3-yl)-1,3,4-oxadiazol-2(3H)-one], the EC50 in experiment [1] is 0.741 nM; in experiment [2], 26.8 nM.
The corresponding values for `N#Cc1ccc(Cn2c(=O)oc3cc(-c4c5c(nc(CCc6ccc(F)cc6)c4-c4n[nH]c(=O)o4)[C@@H]4CCCN4C5=O)ccc32)nc1` [Compound 176, 6-[[6-[(9aS)-2-[2-(4-fluorophenyl)ethyl]-5-oxo-3-(2-oxo-3H-1,3,4-oxadiazol-5-yl)-7,8,9,9a-tetrahydropyrido[2,3-a]pyrrolizin-4-yl]-2-oxo-1,3-benzoxazol-3-yl]methyl]pyridine-3-carbonitrile] are 0.557 nM and 10.7 nM.
Take `O=C1c2c(nc(CCc3ccc(F)cc3)c(-c3n[nH]c(=O)o3)c2-c2cnc3c(ccn3Cc3ccc(F)cn3)c2)[C@@H]2CCCN12` [Compound 177, (S)-5-(2-(4-fluorophenethyl)-4-(1-((5-fluoropyridin-2-yl)methyl)-1H-pyrrolo[2,3-b]pyridin-5-yl)-5-oxo-7,8,9,9a-tetrahydro-5H-pyrido[2,3-a]pyrrolizin-3-yl)-1,3,4-oxadiazol-2(3H)-one]: the figures for the EC50 in experiment [1] and in experiment [2] were 39.4 nM and 1810 nM, respectively.
Taken in the same sequence, the figures for `COc1cccc2c1CC[C@H]2Nc1nccc2cc(-c3c4c(nc(CCc5ccc(F)cc5)c3-c3n[nH]c(=O)o3)[C@]3(C)CCCN3C4=O)sc12` [Compound 178, 5-((S)-2-(4-fluorophenethyl)-4-(7-(((R)-4-methoxy-2,3-dihydro-1H-inden-1-yl)amino)thieno[2,3-c]pyridin-2-yl)-9a-methyl-5-oxo-7,8,9,9a-tetrahydro-5H-pyrido[2,3-a]pyrrolizin-3-yl)-1,3,4-oxadiazol-2(3H)-one] were 3.19 nM and 203 nM.
On to `COc1cccc2c1CC[C@H]2Nc1nccc2cc(-c3c4c(nc(CCc5ccc(F)cc5)c3-c3n[nH]c(=O)o3)[C@]3(C)COCCN3C4=O)sc12` [Compound 179, (R)-2-(4-fluorophenethyl)-4-(7-(((R)-4-methoxy-2,3-dihydro-1H-inden-1-yl)amino)thieno[2,3-c]pyridin-2-yl)-10a-methyl-3-(5-oxo-4,5-dihydro-1,3,4-oxadiazol-2-yl)-7,8,10,10a-tetrahydro-5H-pyrido[2′,3′:3,4]pyrrolo[2,1-c][1,4]oxazin-5-one], for which the results for the EC50 in experiment [1] and in experiment [2] were 1.25 nM and 34.2 nM, respectively.
Take `COc1cccc2c1CC[C@H]2Nc1nccc2cc(-c3c4c(nc(CCc5ccc(F)cc5)c3-c3n[nH]c(=O)o3)C35CC3CCN5C4=O)sc12` (stereo partly drawn) [Compound 180, 5-(8-(4-fluorophenethyl)-6-(7-(((R)-4-methoxy-2,3-dihydro-1H-inden-1-yl)amino)thieno[2,3-c]pyridin-2-yl)-5-oxo-1,1a,2,3-tetrahydro-5H-cyclopropa[g]pyrido[2,3-a]pyrrolizin-7-yl)-1,3,4-oxadiazol-2(3H)-one]: the EC50 was 0.559 nM in experiment [1] and 12.7 nM in experiment [2].
The corresponding values for `COc1cccc2c1CC[C@H]2Nc1nccc2cc(-c3c(-c4n[nH]c(=O)o4)c(CCc4ccc(F)cc4)nc4c3C(=O)N3C[C@H]5C[C@@]43C5)sc12` [Compound 181, (R)-5-(2-(4-fluorophenethyl)-4-(7-((4-methoxy-2,3-dihydro-1H-inden-1-yl)amino)thieno[2,3-c]pyridin-2-yl)-5-oxo-8,9-dihydro-5H,7H-8,9a-methanopyrido[2,3-a]pyrrolizin-3-yl)-1,3,4-oxadiazol-2(3H)-one] are 0.105 nM and 3.5 nM.
Taken in the same sequence, the figures for `COc1cccc2c1CC[C@H]2Nc1nccc2cc(-c3c4c(nc(CCc5ccc(F)cc5)c3-c3n[nH]c(=O)o3)[C@H]3N(CCC3(C)C)C4=O)sc12` [Compound 182, 5-((S)-2-(4-fluorophenethyl)-4-(7-(((R)-4-methoxy-2,3-dihydro-1H-inden-1-yl)amino)thieno[2,3-c]pyridin-2-yl)-9,9-dimethyl-5-oxo-7,8,9,9a-tetrahydro-5H-pyrido[2,3-a]pyrrolizin-3-yl)-1,3,4-oxadiazol-2(3H)-one] were 7.85 nM and 52.9 nM.
Regarding `O=C1c2c(nc(CCc3ccc(F)cc3)c(-c3n[nH]c(=O)o3)c2-c2cc3ccnc(N[C@@H]4CCc5c(F)cc(F)cc54)c3s2)[C@@H]2CCCN12` [Compound 183, 5-((S)-4-(7-(((R)-4,6-difluoro-2,3-dihydro-1H-inden-1-yl)amino)thieno[2,3-c]pyridin-2-yl)-2-(4-fluorophenethyl)-5-oxo-7,8,9,9a-tetrahydro-5H-pyrido[2,3-a]pyrrolizin-3-yl)-1,3,4-oxadiazol-2(3H)-one], the EC50 in experiment [1] came out at 0.143 nM; in experiment [2] it was 4.23 nM.
For `O=C1c2c(nc(CCc3ccc(F)cc3)c(-c3n[nH]c(=O)o3)c2-c2cc3ccnc(N[C@@H]4CCc5cc(F)ccc54)c3s2)[C@@H]2CCCN12` [Compound 184, 5-((S)-4-(7-(((R)-5-fluoro-2,3-dihydro-1H-inden-1-yl)amino)thieno[2,3-c]pyridin-2-yl)-2-(4-fluorophenethyl)-5-oxo-7,8,9,9a-tetrahydro-5H-pyrido[2,3-a]pyrrolizin-3-yl)-1,3,4-oxadiazol-2(3H)-one], the results for the EC50 in experiment [1] and in experiment [2] were 0.247 nM and 3.59 nM, respectively.
`COc1cccc2c1CC[C@H]2Nc1nccc2cc(-c3c4c(nc(C(C)C)c3-c3n[nH]c(=O)o3)[C@@H]3CCCN3C4=O)sc12` [Compound 185, 5-((S)-2-isopropyl-4-(7-(((R)-4-methoxy-2,3-dihydro-1H-inden-1-yl)amino)thieno[2,3-c]pyridin-2-yl)-5-oxo-7,8,9,9a-tetrahydro-5H-pyrido[2,3-a]pyrrolizin-3-yl)-1,3,4-oxadiazol-2(3H)-one]: the EC50 was 15.2 nM in experiment [1] and 231 nM in experiment [2].
As for `CC1(C)Oc2cc(-c3c4c(nc(CCc5ccc(F)cc5)c3-c3n[nH]c(=O)o3)[C@@H]3CCCN3C4=O)ccc2N(Cc2ccc(F)cn2)C1=O` [Compound 186, (S)-7-(2-(4-fluorophenethyl)-5-oxo-3-(5-oxo-4,5-dihydro-1,3,4-oxadiazol-2-yl)-7,8,9,9a-tetrahydro-5H-pyrido[2,3-a]pyrrolizin-4-yl)-4-((5-fluoropyridin-2-yl)methyl)-2,2-dimethyl-2H-benzo[b][1,4]oxazin-3(4H)-one], the EC50 came out at 0.682 nM in experiment [1] and 37.2 nM in experiment [2].
Take `COc1c(F)ccc2c1CC[C@H]2Nc1nc(C)cc2cc(-c3c4c(nc(CCc5ccc(F)cc5)c3-c3n[nH]c(=O)o3)[C@@H]3CCCN3C4=O)sc12` [Compound 187, 5-((S)-4-(7-(((R)-5-fluoro-4-methoxy-2,3-dihydro-1H-inden-1-yl)amino)-5-methylthieno[2,3-c]pyridin-2-yl)-2-(4-fluorophenethyl)-5-oxo-7,8,9,9a-tetrahydro-5H-pyrido[2,3-a]pyrrolizin-3-yl)-1,3,4-oxadiazol-2(3H)-one]: the EC50 in experiment [1] is 0.0484 nM; in experiment [2] it was 0.608 nM.
